Values quoted from earlier work, collected in US20220387435A1, “USE OF MULTI-TARGET PROTEIN KINASE INHIBITOR” (CSPC Zhongqi Pharmaceutical Technology (Shijiazhuang) Co., …, priority 2019, published 2022).
“Also recorded” adds a separate entry of the source.

Experiments:
[1] = test system: AML patients; details: cited from earlier work; for Main toxicity: similar products, prior art
[2] = test system: AML patients; details: cited from earlier work; for CR rates in monotherapy for R/R AML: Sorafenib 400 mg BID, Midostaurin 50 mg BID, Quizartinib 30-60 mg QD, Gilteritinib 120 mg QD
[3] = test system: FLT3-TKD mutation; details: similar products, prior art; cited from earlier work
[4] = phase 3 clinical trial of Quizatinib
[5] = phase II trial of oral Quizartinib, relapsed/refractory AML
[6] = phase II trial of oral Quizartinib
[7] = 120 mg daily, N = 246, ADMIRAL trial
[8] = phase 3 clinical trial of Gilteritinib

CC(C)(C)c1cc(NC(=O)Nc2ccc(-c3cn4c(n3)sc3cc(OCCN5CCOCC5)ccc34)cc2)no1 [Quizartinib]
serious hematological adverse reaction: anemia [1, 4]: 25.9% | serious hematological adverse reaction: cytopenia [1, 4]: 2.5% | serious hematological adverse reaction: febrile neutropenia [1, 4]: 15.8% | serious hematological adverse reaction: leukopenia [1, 4]: 18.0% | serious hematological adverse reaction: lymphopenia [1, 4]: 4.0% | serious hematological adverse reaction: neutropenia [1, 4]: 25.9% | serious hematological adverse reaction: thrombocytopenia [1, 4]: 34.2% | adverse reaction: anemia [1, 5]: 29% | adverse reaction: diarrhea [1, 5]: 20% | adverse reaction: fatigue [1, 5]: 20% | adverse reaction: febrile neutropenia [1, 5]: 25% | adverse reaction: nausea [1, 5]: 38% | adverse reaction: vomiting [1, 5]: 26% | dose-limiting toxicity response [1, 6]: QT prolongation of Grade 3 | patients discontinuing the treatment due to adverse events [1, 6]: 10% | Main toxicity [1]: QTinterval; also recorded: myelosuppression | CR ([2]; Quizatinib Japan phase 2 53 mg 26 cases, prior lines not limited): 0 cases | CR rates in monotherapy for R/R AML [2]: 24-47%

CCc1nc(C(N)=O)c(Nc2ccc(N3CCC(N4CCN(C)CC4)CC3)c(OC)c2)nc1NC1CCOCC1 [Gilteritinib]
Most common ADRs of grade ≥ 3: Anemia [1, 7]: 100 (40.7%) | Most common ADRs of grade ≥ 3: Febrile neutropenia [1, 7]: 113 (45.9%) | Most common ADRs of grade ≥ 3: Thrombocytopenia [1, 7]: 56 (22.8%) | Cardiotoxicity ADR: Cardiac failure ([1]; 120 mg daily, N = 292): 4% | Cardiotoxicity ADR: Pericardial effusion ([1]; 120 mg daily, N = 292): 3% | Cardiotoxicity ADR: Pericarditis ([1]; 120 mg daily, N = 292): 2% | Cardiotoxicity ADR: QT interval prolongation ([1]; 120 mg daily, N = 292): 8.4% | incidence of ALT elevation of all grades [1, 8]: 26.3% | incidence of ALT elevation of grade ≥3 [1, 8]: 12.9% | incidence of AST elevation of all grades [1, 8]: 80.6% | incidence of QT interval prolongation of all grades [1, 8]: 8.8% | incidence of QT interval prolongation of grade ≥3 [1, 8]: 2.5% | Main toxicity [1]: Transaminase; also recorded: diarrhea

CO[C@@H]1[C@H](N(C)C(=O)c2ccccc2)C[C@H]2O[C@]1(C)n1c3ccccc3c3c4c(c5c6ccccc6n2c5c31)C(=O)NC4 [Midostaurin]
Main toxicity [1]: Gastrointestinal; also recorded: myelosuppression

CNC(=O)c1cc(Oc2ccc(NC(=O)Nc3ccc(Cl)c(C(F)(F)F)c3)cc2)ccn1 [Sorafenib]
FLT3-TKD mutation activity [3]: No | Main toxicity [1]: Rash, bleeding,; also recorded: myelosuppression | CR rates in monotherapy for R/R AML [2]: <10%
